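Cells were grown in 96-well plates and exposed to each compound for 48 hours at five concentrations; endpoints were interpolated linearly between bracketing concentrations, or set to the highest concentration if not reached. GI50 is the concentration that inhibits growth by half. TGI: concentration producing complete growth inhibition.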
Tests used:
Test in all cases: growth of human tumour cells (NCI), 48 h
[1] = test system: MDA-MB-231 breast
[2] = test system: NCI-H226 lung
[3] = test system: ACHN renal
[4] = test system: UACC-257 melanoma
[5] = test system: RPMI-8226 leukemia
[6] = test system: HCC-2998 colon
[7] = test system: NCI-H23 lung
[8] = test system: MOLT-4 leukemia
[9] = test system: CCRF-CEM leukemia
[10] = test system: NCI-H460 lung

Row | Compound | GI50 [1] [µM] | TGI [1] [µM] | GI50 [2] [µM] | TGI [2] [µM] | GI50 [3] [µM] | TGI [3] [µM] | GI50 [4] [µM] | TGI [4] [µM] | GI50 [5] [µM] | TGI [5] [µM] | GI50 [6] [µM] | TGI [6] [µM] | GI50 [7] [µM] | TGI [7] [µM] | GI50 [8] [µM] | TGI [8] [µM] | GI50 [9] [µM] | TGI [9] [µM] | GI50 [10] [µM] | TGI [10] [µM]
1 | COc1ccc(-n2c(=S)sc3c(Cl)nc(C)nc32)c(OC)c1 | 3.16 | 10.3 | 3.22 | 12 | 2.08 | 3.97 | 2.35 | 5.62 | 3.45 | 14 | 16.2 | 31.1 | 2.44 | 5.87 | 2.12 | 5.48 | 2.66 | 7.45 | 3.12 | 9.04
2 | CCCCCCCC(=O)OCC/C=C/C1OC1C1OC(=O)/C=C\C=C\C(=O)N(C(C)=O)C(=O)/C=C(/C)CCC2OC2C1OC(=O)NC(C)=O (centres undefined) | 10.5 | > 25 | 18.9 | > 25 | 2.14 | 9.94 | 9.38 | > 25 | 0.959 | 4.03 | 7.35 | 19.1 | 5.07 | 12.8 | 10.1 | > 25 | 0.734 | > 25 | 11.4 | > 25
3 | O=C(Nc1ccc(Cl)cc1C(F)(F)F)C(=O)Nn1c(=S)[nH]c2ccccc2c1=O |  | > 100 |  | > 100 |  | > 100 |  | > 100 |  | > 100 |  | > 100 |  | > 100 |  | > 100 |  | > 100 |  | > 100
4 | COc1c2ccoc2nc2c(OC)c(OCC(O)C(C)(C)O)ccc12 (centres undefined) |  | > 100 |  | > 100 |  | > 100 |  | > 100 |  | > 100 |  | > 100 |  | > 100 |  | > 100 |  | > 100 |  | > 100
5 | COc1ccc2c(c1)C(=O)c1c-2c(OCCCN(C)C)nc2cc(Br)ccc12 | 3.18 | 13.5 | 4.63 | 18.7 | 1.29 | 2.73 | 16.4 | 32.9 | 15.9 | 39.7 | 10.3 | 22.7 | 11.3 | 24.6 | 3.09 | 18.7 | 5.2 | 23.8 | 2.54 | 7.57
6 | Cn1c(I)c(C#C[Si](C)(C)C)c(=O)n(C(=O)c2ccccc2)c1=O | 5.22 | 11.8 | 7.44 | 21.7 | 2.9 | 7.83 | 11.6 | 24.6 | 2.02 | > 20.4 | 6.78 | 21.6 | 8.28 | 27.8 | 1.25 | > 21.9 | 0.432 |  | 8.34 | 26.2
7 | CC1=NN(c2cccc(Cl)c2)C(=O)/C1=C\c1cn(CC(O)CN2CCCCC2)c2ccccc12 (centres undefined) | 3.32 | 15.8 | 22.5 | 50.4 | 3.18 | 14.6 | 2.35 | 4.62 | 2.91 | 8.73 | 6.12 | 19.2 | 12.4 | 32.4 | 4.76 | 28.8 | 3.38 | > 100 | 2.44 | 6.4
8 | N#Cc1nc(CCc2nc(C#N)c(N)o2)oc1N |  | > 10 |  | > 10 |  | > 10 |  | > 10 |  | > 10 |  | > 10 |  | > 10 |  | > 10 |  | > 10 |  | > 10
9 | COc1cccc2c1C(=O)c1c(O)c3c(c(O)c1C2=O)C[C@@](O)(C(C)=O)CC3OC1CC(OC2CC(N)C(O)C(C)O2)C(O)C(C)O1 (some centres undefined) |  | > 100 |  | > 100 |  | > 100 |  | > 100 |  | > 74.5 |  | > 100 |  | > 100 |  | 7.24 |  | 44 |  | > 100
10 | O=C(Nc1n[nH]c2cc(-c3cc(F)ccc3F)ccc12)C1CC1 | 19.5 | > 25 | 18.4 | > 25 | > 25 | > 25 | > 25 | > 25 | 13.1 | > 25 | 14.4 | > 25 | 14.2 | > 25 | 14.3 | > 25 | 10.5 | > 25 | 8.81 | > 25
11 | Cn1c(COC(=O)NCCn2ccnc2)nc2c(N3CCOCC3)nc(-c3ccccc3)nc21 | 1.06 | 2.34 | 1.72 | 3.6 | 0.353 | 1.31 | 1.28 | 2.86 | 0.222 | 1.05 | 1.41 | 2.9 | 1.52 | 3.08 | 0.441 | 2.41 | 0.254 | 1.44 | 1.42 | 2.91
12 | Cc1ccc(/C(=N/Nc2ccc([N+](=O)[O-])cc2)Sc2cc(Cl)c(C)cc2S(N)(=O)=O)cc1 | 0.8 | 2.24 | 1.64 | 3.57 | 2.37 | 6.51 | 6.45 | 18.8 | 1.82 | 4.27 | 1.76 | 3.66 | 1.64 | 3.59 | 3.35 | 12.3 | 2.11 | 4.58 | 2.55 | 9.07
